Measurements reported in patent US11447445B2, “Diabetes and metabolic syndrome treatment with a novel dual modulator of soluble epoxide hydrolase and peroxisome proliferator-activated receptors” (priority 2015, dated 2022).
Read-outs that look alike come from different tables or passages of the source.

Tests used:
PPARδ = target: T1, PPARδ (Homo sapiens, UniProt Q03181); experiment: PPAR transactivation assay in COS-7 cells (Gal4-hPPAR-LBD, luciferase); format: cell-based
T1 construct: expressed in transfected cells; host or cells: COS-7
Description: (§1) COS-7 cells (PPAR) were grown in DMEM high glucose, supplemented with 10% fetal calf serum (FCS), 1% sodium pyruvate (SP) and 1% penicillin/streptomycin (PS) at 37° C. and 5% CO2. Used plasmids for PPAR transactivation assay are shown under supporting informations.
(§2) The day before transfection, COS-7 cells were seeded in 96-well plates with a density of 30,000 cells per well. Transient transfection was carried out using Lipofectamine LTX reagent (Invitrogen, Carlsbad, Calif., USA) according to the manufacturer's protocol with pFR-Luc (Stratagene), pRL-SV40 (Promega) and the Ga14-fusion receptor plasmids (pFA-CMV-hPPAR-LBD) of the respective PPAR subtype. 5 h after transfection, medium was changed to DMEM without phenol red and 10% FCS, supplemented with 1% SP, 1% PS and 1% L-glutamine, now additionally containing 0.1% DMSO and the respective test compound or 0.1% DMSO alone as untreated control. Each concentration was tested in triplicate wells and each experiment was repeated independently at least three times. Following overnight incubation with the test compounds, cells were assayed for luciferase activity using Dual-Glo™ Luciferase Assay System (Promega) according to the manufacturer's protocol. Luminescence was measured with an Infinite m200 luminometer (Tecan Deutschland GmbH). Each concentration of the compounds was tested in triplicate wells. Normalization for transfection efficacy and cell growth was done by division of the firefly luciferase data by renilla luciferase data resulting in relative light units. Activation factors were obtained by dividing by DMSO control. […] All compounds were evaluated by comparison of the achieved maximum effect to that of the reference compound (pioglitazone for PPARγ, GW7647 for PPARa, and L165041 for PPARS each with 1 μM). Data are expressed as mean±SE; n≥3.
(§3) The Gal4-fusion receptor plasmids pFA-CMV-PPARa-LBD, pFA-CMV-PPARS-LBD and pFA-CMV-PPARγ-LBD containing the hinge region and ligand binding domain (LBD) for each of the PPAR subtypes, respectively, were constructed by integrating cDNA fragments obtained from PCR amplification of human monocytes into the SmaI/XbaI cleavage site of the pFA-CMV vector (Stratagene, La Jolla, Calif., USA) and have already been published. […] Frame and sequence of the fusion receptors were verified by sequencing. pFR-Luc (Stratagene) was used as reporter plasmid and pRL-SV40 (Promega) for normalization of transfection efficacy and cell growth.

PPARα = target: T2, PPARα (Homo sapiens, UniProt Q07869); format: cell-based; conditions: for PPARα activation @10 μM: at 10 μM
T2 construct: expressed in transfected cells; host or cells: COS-7
Description: as §1, §2, §3

recombinant human sEH = target: T3, recombinant human sEH (Homo sapiens, UniProt P34913); experiment: biochemical; conditions: read-out: IC50 sEH (converted)
T3 sequence (P34913 1-555): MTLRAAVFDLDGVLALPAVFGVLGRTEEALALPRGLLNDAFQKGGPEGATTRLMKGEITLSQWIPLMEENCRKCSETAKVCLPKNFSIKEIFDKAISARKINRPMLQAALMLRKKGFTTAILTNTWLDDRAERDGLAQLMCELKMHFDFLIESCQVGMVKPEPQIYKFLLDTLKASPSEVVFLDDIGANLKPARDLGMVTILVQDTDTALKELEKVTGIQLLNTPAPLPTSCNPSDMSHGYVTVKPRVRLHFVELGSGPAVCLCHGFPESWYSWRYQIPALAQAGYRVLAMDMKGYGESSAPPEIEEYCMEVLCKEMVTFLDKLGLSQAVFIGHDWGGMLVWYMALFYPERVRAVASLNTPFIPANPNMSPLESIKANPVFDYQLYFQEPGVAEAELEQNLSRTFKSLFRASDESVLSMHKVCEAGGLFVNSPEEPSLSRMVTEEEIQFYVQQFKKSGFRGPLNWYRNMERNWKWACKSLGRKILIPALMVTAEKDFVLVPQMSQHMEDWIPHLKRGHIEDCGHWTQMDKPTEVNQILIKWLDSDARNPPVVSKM

T2 sequence (Q07869 239-466): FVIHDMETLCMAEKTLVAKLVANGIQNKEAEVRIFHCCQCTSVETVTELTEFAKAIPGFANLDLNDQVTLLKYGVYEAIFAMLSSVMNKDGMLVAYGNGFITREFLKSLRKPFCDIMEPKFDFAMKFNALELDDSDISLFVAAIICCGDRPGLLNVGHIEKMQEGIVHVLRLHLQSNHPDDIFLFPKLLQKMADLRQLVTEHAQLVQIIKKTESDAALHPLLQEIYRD
T1 sequence (Q03181 211-439): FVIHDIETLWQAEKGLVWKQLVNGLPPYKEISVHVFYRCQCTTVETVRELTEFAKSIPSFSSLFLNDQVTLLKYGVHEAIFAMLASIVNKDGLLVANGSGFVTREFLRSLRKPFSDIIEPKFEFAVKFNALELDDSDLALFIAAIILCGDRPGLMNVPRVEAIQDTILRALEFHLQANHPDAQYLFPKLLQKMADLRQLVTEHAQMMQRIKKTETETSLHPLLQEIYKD

| Structure (SMILES) | IC50 (recombinant human sEH) [nM] | other results |
| --- | --- | --- |
| CCOC(=O)C(CC)Cc1ccc(C(=O)NCc2ccccc2)cc1 (centres unmarked) [Compound 2b, Ethyl 2-ethyl 3-[4-(N-benzylbenzamide)]propanoate] | – | EC50 PPARδ (PPARδ): n.t. i.a. i.a. n.t.; EC50 PPARα (PPARα): n.t. i.a. i.a. n.t. |
| CC/C(=C\c1ccc(C(=O)NCc2ccccc2)cc1)C(=O)O [Compound 2d, (E)-4-[N-Benzylbenzamide]-alpha-ethylcinnamic acid] | 9300 | – |
| CCOC(=O)/C(=C/c1ccc(C(=O)NCc2ccccc2C)cc1)CC [Compound 3a, Ethyl (E)-4-[N-((2-methyl)benzyl)benzamide]-alpha-ethylcinnamate] | 760 ± 50 | – |
| CCOC(=O)C(CC)Cc1ccc(C(=O)NCc2ccccc2C)cc1 (centres unmarked) [Compound 3b, Ethyl 2-ethyl 3-[4-(N-((2-methyl)benzyl)benzamide)]propanoate] | – | EC50 PPARδ (PPARδ; i.a. = inactive): n.t. i.a. i.a. n.t.; PPARα activation @10 μM (PPARα; compared to GW7647 1 μM): 15% |
| CC/C(=C\c1ccc(C(=O)NCc2ccccc2C)cc1)C(=O)O [Compound 3d, (E)-4-[N-((2-Methyl)benzyl)benzamide]-alpha-ethylcinnamic acid] | 10000 | – |
| CCOC(=O)/C(=C/c1ccc(C(=O)NCc2ccccc2Cl)cc1)CC [Compound 4a, Ethyl (E)-4-[N-((2-chloro)benzyl)benzamide]-alpha-ethylcinnamate] | 410 ± 140 | – |
| CCOC(=O)C(CC)Cc1ccc(C(=O)NCc2ccccc2Cl)cc1 (centres unmarked) [Compound 4b, Ethyl 2-ethyl 3-[4-(N-((2-chloro)benzyl)benzamide)]propanoate] | – | EC50 PPARδ (PPARδ; i.a. = inactive): n.t. i.a. i.a. n.t.; EC50 PPARα (PPARα; i.a. = inactive): n.t. i.a. i.a. n.t. |
| CC/C(=C\c1ccc(C(=O)NCc2ccccc2Cl)cc1)C(=O)O [Compound 4d, (E)-4-[N-((2-Chloro)benzyl)benzamide]-alpha-ethylcinnamic acid] | 2800 | – |
| CCOC(=O)/C(=C/c1ccc(C(=O)NCc2ccccc2Br)cc1)CC [Compound 5a, Ethyl (E)-4-[N-((2-bromo)benzyl)benzamide]-alpha-ethylcinnamate] | 300 ± 80 | – |
| CC/C(=C\c1ccc(C(=O)NCc2ccccc2Br)cc1)C(=O)O [Compound 5d, (E)-4-[N-((2-Bromo)benzyl)benzamide]-alpha-ethylcinnamic acid] | 2400 | – |
| CC/C(=C\c1ccc(C(=O)NCc2ccccc2OC(F)(F)F)cc1)C(=O)O [Compound 6d, (E)-4-[N-((2-Trifluoromethoxy)benzyl)benzamide]-alpha-ethylcinnamic acid] | 900 | – |
| CCOC(=O)/C(=C/c1ccc(C(=O)NCc2ccc(F)cc2)cc1)CC [Compound 7a, Ethyl (E)-4-[N-((4-fluoro)benzyl)benzamide]-alpha-ethylcinnamate] | 62 ± 3 | – |
| CCOC(=O)C(CC)Cc1ccc(C(=O)NCc2ccc(F)cc2)cc1 (centres unmarked) [Compound 7b, Ethyl 2-ethyl 3-[4-(N-((4-fluoro)benzyl)benzamide)]propanoate] | – | EC50 PPARδ (PPARδ): n.t. i.a. i.a. n.t.; EC50 PPARα (PPARα): n.t. i.a. i.a. n.t. |
| CC/C(=C\c1ccc(C(=O)NCc2ccc(F)cc2)cc1)C(=O)O [Compound 7d, (E)-4-[N-((4-Fluoro)benzyl)benzamide]-alpha-ethylcinnamic acid] | 6700 | – |
| CCOC(=O)/C(=C/c1ccc(C(=O)NCc2ccc(C(F)(F)F)cc2)cc1)CC [Compound 8a, Ethyl (E)-4-[N-((4-trifluoromethyl)benzyl)benzamide]-alpha-ethylcinnamate] | 550 ± 60 | – |
| CCOC(=O)C(CC)Cc1ccc(C(=O)NCc2ccc(C(F)(F)F)cc2)cc1 (centres unmarked) [Compound 8b, Ethyl 2-ethyl 3-[4-(N-((4-trifluoromethyl)benzyl)benzamide)]propanoate] | – | EC50 PPARδ (PPARδ; i.a. = inactive): n.t. i.a. i.a. n.t.; PPARα activation @10 μM (PPARα; compared to GW7647 1 μM): 22% |
| CCC(Cc1ccc(C(=O)NCc2ccc(C(F)(F)F)cc2)cc1)C(=O)O (centres unmarked) [Compound 8c, 2-Ethyl 3-[4-(N-((4-trifluoromethyl)benzyl)benzamide)]propionic acid] | – | EC50 PPARδ (PPARδ; i.a. = inactive): n.t. i.a. i.a. n.t. |

| Structure (SMILES) | IC50 (recombinant human sEH) [nM] | other results |
| --- | --- | --- |
| CCOC(=O)/C(=C/c1ccc(C(=O)NCc2ccc(OC(F)(F)F)cc2)cc1)CC [Compound 9a, Ethyl (E)-4-[N-((4-trifluoromethoxy)benzyl)benzamide]-alpha-ethylcinnamate] | 880 ± 100 | – |
| CCOC(=O)C(CC)Cc1ccc(C(=O)NCc2ccc(OC(F)(F)F)cc2)cc1 (centres unmarked) [Compound 9b, Ethyl 2-ethyl 3-[4-(N-((4-trifluoromethoxy)benzyl)benzamide)]propanoate] | – | EC50 PPARδ (PPARδ; i.a. = inactive): n.t. i.a. i.a. n.t. |
| CCC(Cc1ccc(C(=O)NCc2ccc(OC(F)(F)F)cc2)cc1)C(=O)O (centres unmarked) [Compound 9c, 2-Ethyl 3-[4-(N-((4-trifluoromethoxy)benzyl)benzamide)]propionic acid] | – | EC50 PPARδ (PPARδ; i.a. = inactive): n.t. i.a. i.a. n.t. |
| CC/C(=C\c1ccc(C(=O)NCc2ccc(OC(F)(F)F)cc2)cc1)C(=O)O [Compound 9d, (E)-4-[N-((4-Trifluoromethoxy)benzyl)benzamide]-alpha-ethylcinnamic acid] | 1600 | – |
| CC/C(=C\c1ccc(C(=O)NCc2ccc(OC)cc2)cc1)C(=O)O [Compound 10d, (E)-4-[N-((4-Methoxy)benzyl)benzamide]-alpha-ethylcinnamic acid] | 13000 | – |
| CCOC(=O)/C(=C/c1ccc(C(=O)NCc2ccc(Oc3ccccc3)cc2)cc1)CC [Compound 12a, Ethyl (E)-4-[N-((4-phenoxy)benzyl)benzamide]-alpha-ethylcinnamate] | 1400 ± 60 | – |
| CCOC(=O)C(CC)Cc1ccc(C(=O)NCc2ccc(Oc3ccccc3)cc2)cc1 (centres unmarked) [Compound 12b, Ethyl 2-ethyl 3-[4-(N-((4-phenoxy)benzyl)benzamide)]propanoate] | – | EC50 PPARδ (PPARδ; i.a. = inactive): i.a.; Emax-% PPARα (maximum activation in percent) (PPARα; compared to GW7647 1 μM): 110% |
| CC/C(=C\c1ccc(C(=O)NCc2ccc(Oc3ccccc3)cc2)cc1)C(=O)O [Compound 12d, (E)-4-[N-((4-Phenoxy)benzyl)benzamide]-alpha-ethylcinnamic acid] | 800 | – |
| CCOC(=O)/C(=C/c1ccc(C(=O)NCc2ccc(F)cc2C(F)(F)F)cc1)CC [Compound 13a] | 100 ± 10 | – |
| CCOC(=O)C(CC)Cc1ccc(C(=O)NCc2ccc(F)cc2C(F)(F)F)cc1 (centres unmarked) [Compound 13b, Ethyl 2-ethyl 3-[4-(N-(4-fluoro(2-trifluoromethyl)benzyl)benzamide)]propanoate] | – | EC50 PPARδ (PPARδ; i.a. = inactive): n.t. i.a. i.a. n.t.; EC50 PPARα (PPARα; i.a. = inactive): n.t. i.a. i.a. n.t. |
| CCC(Cc1ccc(C(=O)NCc2ccc(F)cc2C(F)(F)F)cc1)C(=O)O (centres unmarked) [Compound 13c, 2-Ethyl 3-[4-(N-(4-fluoro(2-trifluoromethyl)benzyl)benzamide)]propionic acid] | – | EC50 PPARδ (PPARδ; i.a. = inactive): n.t. i.a. i.a. n.t.; EC50 PPARα (PPARα; i.a. = inactive): n.t. i.a. i.a. n.t. |
| CC/C(=C\c1ccc(C(=O)NCc2ccc(F)cc2C(F)(F)F)cc1)C(=O)O [Compound 13d, (E)-4-[N-((4-Fluoro(2-trifluoromethyl))benzyl)benzamide]-alpha-ethylcinnamic acid] | 1200 | – |
| CCOC(=O)/C(=C/c1ccc(C(=O)NCc2ccc(OC)cc2C(F)(F)F)cc1)CC [Compound 14a] | 50 ± 9 | – |
| CC/C(=C\c1ccc(C(=O)NCc2ccc(OC)cc2C(F)(F)F)cc1)C(=O)O [Compound 14d] | 400 | – |
| CCOC(=O)/C(=C/c1cccc(C(=O)NCc2ccccc2C(F)(F)F)c1)CC [Compound 15a, Ethyl (E)-3-[N-((2-trifluoromethyl)benzyl)benzamide]-alpha-ethylcinnamate] | 40 ± 6 | – |
| CC/C(=C\c1cccc(C(=O)NCc2ccccc2C(F)(F)F)c1)C(=O)O [Compound 15d, (E)-3-[N-((2-Trifluoromethyl)benzyl)benzamide]-alpha-ethylcinnamic acid] | 400 ± 100 | – |
